Starred links: 1 amine or outer side, 2 acyl side, 3 side chain; linkers in the order of their positions; H or OH if unused. Positions of bridges follow the written chain, without caps; N, C: chain ends. Non-standard residues stand in square brackets, D forms with d. Residues, ends and D or L forms follow the SMILES beside them. *: point of attachment. NH(CH2)3NH(O2Oc(DOTA)) = O=C(O)CN1CCN(CC(=O)O)CCN(CC(=O)NCCOCCOCC(=O)NCCCN*)CCN(CC(=O)O)CC1; DOTA = O=C(O)CN1CCN(CC(=O)O)CCN(CC(=O)*)CCN(CC(=O)O)CC1; Phe(4-tBu) = CC(C)(C)c1ccc(C[C@H](N)C(=O)O)cc1; Phe(4-NH2) = Nc1ccc(C[C@H](N)C(=O)O)cc1; mXylylene = c1cc(C[*:1])cc(C[*:2])c1; X46 = NS(=O)(=O)c1c[nH]c(C(=O)*)c1; Trx = NC[C@H]1CC[C@H](C(=O)O)CC1; X2 = O=C(CN1CCC(N[*:1])CC1)[*:2]; X60 = NC(=O)c1ccc(N2CC(N*)C2)cc1; tBuAla = CC(C)(C)C[C@H](N)C(=O)O; X1 = O=C(CN1CCN([*:1])CC1)[*:2]; X58 = CS(=O)(=O)c1ccc(CN*)cc1; 3Amb = NCc1cccc(C(=O)O)c1; 4Amb = NCc1ccc(C(=O)O)cc1; Isovaleryl = CC(C)CC(=O)*; Dap = NC[C@H](N)C(=O)O; AEEA = NCCOCCOCC(=O)O; X45 = COCc1cc(CN*)on1
biological target: T1, CAIX-expressing human HT-29 colorectal cancer cells (Homo sapiens, UniProt Q16790); experiment: FACS binding assay (IC50 determination, competition with tracer 3BP-2776 or 3BP-4149); details: FACS binding assay, HT-29 cells, competition with tracer 3BP-2776 (10 nM, biotin-labeled), 4° C., 1 hour; read-out: pIC50 category (activity) (converted)
T1 construct: CAIX-expressing human HT-29 colorectal cancer cells; host or cells: HT-29 human colorectal cancer cells
Summary of the method: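 HT-29 cells in FACS buffer (PBS, 1% FCS) at 500.000 cells/ml were exposed to compounds competing with a labelled tracer, with biotinylated compounds detected by 1 μg/mL APC-streptavidin for 30 min on ice. APC/Cy5 median fluorescence was read by flow cytometry and IC50 derived by 4PL fit.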

IC50 [nM]	SMILES
10 to 79.4	CC(C)C[C@@H]1NC(=O)[C@H](Cc2ccc(C(C)(C)C)cc2)NC(=O)[C@H](CC(=O)O)NC(=O)[C@H]2CCCN2C(=O)[C@H](CCC(=O)O)NC(=O)[C@@H](NC(=O)[C@H](Cc2ccc(O)cc2)NC(=O)[C@@H](NC(=O)CN2CCC(NC(=O)CN3CCN(CC(=O)O)CCN(CC(=O)O)CCN(CC(=O)O)CC3)CC2)C(C)C)CSCc2cccc(c2)CSC[C@@H](C(N)=O)NC(=O)[C@H](CO)NC(=O)[C@H](Cc2c[nH]c3ccccc23)NC(=O)[C@H]([C@@H](C)O)NC1=O [3BP-4160] ({DOTA}-[X2]VYCE[dP]D[Phe(4-tBu)]LTWSC-NH2; linker 4-13 via mXylylene)
100 to 794	CC(C)C[C@@H]1NC(=O)[C@H](Cc2ccc(NC(=O)c3cc(S(N)(=O)=O)c[nH]3)cc2)NC(=O)[C@H](CC(=O)O)NC(=O)[C@H]2CCCN2C(=O)[C@H](CCC(=O)O)NC(=O)[C@@H](NC(=O)[C@H](CCC(N)=O)NC(=O)CN2CCN(C(=O)CN3CCN(CC(=O)O)CCN(CC(=O)O)CCN(CC(=O)O)CC3)CC2)CSCc2cccc(c2)CSC[C@@H](C(N)=O)NC(=O)[C@H](CO)NC(=O)[C@H](Cc2c[nH]c3ccccc23)NC(=O)[C@H]([C@@H](C)O)NC1=O [3BP-4814] ({DOTA}-[X1]QCE[dP]D[Phe(4-NH2)](X46)LTWSC-NH2; linker 3-12 via mXylylene)

same assay, conditions: FACS binding assay, HT-29 cells, competition with tracer 3BP-4149 (3 nM, Cy5-labeled), 4° C., 1 hour; read-out: pIC50 category (activity) (converted)

IC50 [nM]	SMILES
10 to 79.4	CC(C)C[C@@H]1NC(=O)[C@H](Cc2c[nH]c3ccccc23)NC(=O)[C@H](CCC(=O)NCc2ccc(S(C)(=O)=O)cc2)NC(=O)[C@H]2CCCN2C(=O)[C@H](CCC(=O)O)NC(=O)[C@@H](NC(=O)[C@H](Cc2ccc(O)cc2)NC(=O)[C@@H](NC(=O)CN2CCC(NC(=O)CN3CCN(CC(=O)O)CCN(CC(=O)O)CCN(CC(=O)O)CC3)CC2)C(C)C)CSCc2cccc(c2)CSC[C@@H](C(N)=O)NC(=O)[C@H](CO)NC(=O)[C@H](Cc2c[nH]c3ccccc23)NC(=O)[C@H]([C@@H](C)O)NC1=O [3BP-4333] ({DOTA}-[X2]VYCE[dP]E(X58)WLTWSC-NH2; linker 4-13 via mXylylene)
10 to 79.4	COCc1cc(CNC(=O)CC[C@@H]2NC(=O)[C@H]3CCCN3C(=O)[C@H](CCC(=O)O)NC(=O)[C@@H](NC(=O)[C@H](Cc3ccc(O)cc3)NC(=O)[C@@H](NC(=O)CN3CCC(NC(=O)CN4CCN(CC(=O)O)CCN(CC(=O)O)CCN(CC(=O)O)CC4)CC3)C(C)C)CSCc3cccc(c3)CSC[C@@H](C(N)=O)NC(=O)[C@H](CO)NC(=O)[C@H](Cc3c[nH]c4ccccc34)NC(=O)[C@H]([C@@H](C)O)NC(=O)[C@H](CC(C)C)NC(=O)[C@H](Cc3c[nH]c4ccccc34)NC2=O)on1 [3BP-4339] ({DOTA}-[X2]VYCE[dP]E(X45)WLTWSC-NH2; linker 4-13 via mXylylene)
10 to 79.4	CC(C)C[C@@H]1NC(=O)[C@H](Cc2c[nH]c3ccccc23)NC(=O)[C@H](CCC(=O)NC2CN(c3ccc(C(N)=O)cc3)C2)NC(=O)[C@H]2CCCN2C(=O)[C@H](CCC(=O)O)NC(=O)[C@@H](NC(=O)[C@H](Cc2ccc(O)cc2)NC(=O)[C@@H](NC(=O)CN2CCC(NC(=O)CN3CCN(CC(=O)O)CCN(CC(=O)O)CCN(CC(=O)O)CC3)CC2)C(C)C)CSCc2cccc(c2)CSC[C@@H](C(N)=O)NC(=O)[C@H](CO)NC(=O)[C@H](Cc2c[nH]c3ccccc23)NC(=O)[C@H]([C@@H](C)O)NC1=O [3BP-4388] ({DOTA}-[X2]VYCE[dP]E(X60)WLTWSC-NH2; linker 4-13 via mXylylene)
10 to 79.4	CC(C)C[C@@H]1NC(=O)[C@H](Cc2c[nH]c3ccccc23)NC(=O)[C@H](CC(=O)O)NC(=O)[C@H]2CCCN2C(=O)[C@H](CCC(=O)O)NC(=O)[C@@H]2CSCc3cccc(c3)CSC[C@@H](C(N)=O)NC(=O)[C@H](CNC(=O)C[C@H](NC(=O)COCCOCCNC(=O)CN3CCN(CC(=O)O)CCN(CC(=O)O)CCN(CC(=O)O)CC3)C(=O)N2)NC(=O)[C@H](Cc2c[nH]c3ccccc23)NC(=O)[C@H]([C@@H](C)O)NC1=O [3BP-4262] ({DOTA-AEEA}-DCE[dP]DWLTW[Dap]C-NH2; lactam 1-10; linker 2-11 via mXylylene)

same assay, conditions: FACS competition on HT-29 cells, Tracer ID 3BP-2776 (10 nM, biotin-labeled), 4° C., 1 hour; read-out: pIC50 category (activity) (converted)

IC50 [nM]	SMILES
< 10	CC(=O)N[C@H](C(=O)N[C@@H](CO)C(=O)N[C@H]1CSCc2cccc(c2)CSC[C@@H](C(N)=O)NC(=O)[C@H](CO)NC(=O)[C@H](Cc2c[nH]c3ccccc23)NC(=O)[C@H]([C@@H](C)O)NC(=O)[C@H](CC(C)C)NC(=O)[C@H](Cc2c[nH]c3ccccc23)NC(=O)[C@H](CC(=O)O)NC(=O)[C@H]2CCCN2C(=O)[C@H](CCC(=O)O)NC1=O)C(C)C [3BP-3571] (Ac-VSCE[dP]DWLTWSC-NH2; linker 3-12 via mXylylene)
< 10	CC(C)[C@H](NC(=O)[C@H]1CC[C@H](CNC(=O)CN2CCN(CC(=O)O)CCN(CC(=O)O)CCN(CC(=O)O)CC2)CC1)C(=O)N[C@@H](Cc1ccc(O)cc1)C(=O)N[C@H]1CSCc2cccc(c2)CSC[C@@H](C(N)=O)NC(=O)[C@H](C)NC(=O)[C@H](Cc2c[nH]c3ccccc23)NC(=O)[C@H]([C@@H](C)O)NC(=O)[C@H](CC(C)(C)C)NC(=O)[C@H](Cc2c[nH]c3ccccc23)NC(=O)[C@H](CC(=O)O)NC(=O)[C@H]2CCCN2C(=O)[C@H](CCC(=O)O)NC1=O [3BP-3431] ({DOTA-Trx}-VYCE[dP]DW[tBuAla]TWAC-NH2; linker 3-12 via mXylylene)
10 to 79.4	CC(C)CC(=O)N[C@@H](CCCNC(=N)N)C(=O)N[C@H]1CSCc2cccc(c2)CSC[C@@H](C(N)=O)NC(=O)[C@H](CCC(=O)NCCCNC(=O)COCCOCCNC(=O)CN2CCN(CC(=O)O)CCN(CC(=O)O)CCN(CC(=O)O)CC2)NC(=O)[C@H](Cc2c[nH]c3ccccc23)NC(=O)[C@H]([C@@H](C)O)NC(=O)[C@H](CC(C)C)NC(=O)[C@H](Cc2c[nH]c3ccccc23)NC(=O)[C@H](CC(=O)O)NC(=O)[C@H]2CCCN2C(=O)[C@H](CCC(=O)O)NC1=O [3BP-3741] (Isovaleryl-RCE[dP]DWLTWE(NH(CH2)3NH(O2Oc(DOTA)))C-NH2; linker 2-11 via mXylylene)
< 10	CC(=O)N[C@H](C(=O)N[C@@H](Cc1ccc(O)cc1)C(=O)N[C@H]1CSCc2cccc(c2)CSC[C@@H](C(=O)NCc2ccc(C(=O)N[C@@H](CCCCNC(=O)CN3CCN(CC(=O)O)CCN(CC(=O)O)CCN(CC(=O)O)CC3)C(N)=O)cc2)NC(=O)[C@H](C)NC(=O)[C@H](Cc2c[nH]c3ccccc23)NC(=O)[C@H]([C@@H](C)O)NC(=O)[C@H](CC(C)C)NC(=O)[C@H](Cc2c[nH]c3ccccc23)NC(=O)[C@H](CC(=O)O)NC(=O)[C@H]2CCCN2C(=O)[C@H](CCC(=O)O)NC1=O)C(C)C [3BP-3477] (Ac-VYCE[dP]DWLTWAC[4Amb]K(DOTA)-NH2; linker 3-12 via mXylylene)
10 to 79.4	CC(C)CC(=O)N[C@@H](CCC(=O)O)C(=O)N[C@H]1CSCc2cccc(c2)CSC[C@@H](C(N)=O)NC(=O)[C@H](CCC(=O)NCCCNC(=O)COCCOCCNC(=O)CN2CCN(CC(=O)O)CCN(CC(=O)O)CCN(CC(=O)O)CC2)NC(=O)[C@H](Cc2c[nH]c3ccccc23)NC(=O)[C@H]([C@@H](C)O)NC(=O)[C@H](CC(C)C)NC(=O)[C@H](Cc2c[nH]c3ccccc23)NC(=O)[C@H](CC(=O)O)NC(=O)[C@H]2CCCN2C(=O)[C@H](CCC(=O)O)NC1=O [3BP-3872] (Isovaleryl-ECE[dP]DWLTWE(NH(CH2)3NH(O2Oc(DOTA)))C-NH2; linker 2-11 via mXylylene)
100 to 794	CC(=O)N[C@H](C(=O)N[C@@H](Cc1ccc(O)cc1)C(=O)N[C@H]1CSCc2cccc(c2)CSC[C@@H](C(N)=O)NC(=O)[C@H](CCC(N)=O)NC(=O)[C@H](Cc2c[nH]c3ccccc23)NC(=O)[C@H]([C@@H](C)O)NC(=O)[C@@H](CC(C)C)NC(=O)[C@H](Cc2c[nH]c3ccccc23)NC(=O)[C@H](CC(=O)O)NC(=O)CNC(=O)[C@H](CCC(=O)O)NC1=O)C(C)C [3BP-3048] (Ac-VYCEGDW[dL]TWQC-NH2; linker 3-12 via mXylylene)
< 10	CC(C)C[C@@H]1NC(=O)[C@H](Cc2c[nH]c3ccccc23)NC(=O)[C@H](CO)NC(=O)[C@H]2CCCN2C(=O)[C@H](CCC(=O)O)NC(=O)[C@@H](NC(=O)[C@H](Cc2ccc(O)cc2)NC(=O)[C@@H](NC(=O)CN2CCC(NC(=O)CN3CCN(CC(=O)O)CCN(CC(=O)O)CCN(CC(=O)O)CC3)CC2)C(C)C)CSCc2cccc(c2)CSC[C@@H](C(N)=O)NC(=O)[C@H](CO)NC(=O)[C@H](Cc2c[nH]c3ccccc23)NC(=O)[C@H]([C@@H](C)O)NC1=O [3BP-3595] ({DOTA}-[X2]VYCE[dP]SWLTWSC-NH2; linker 4-13 via mXylylene)
< 10	CC(C)C[C@@H]1NC(=O)[C@H](Cc2c[nH]c3ccccc23)NC(=O)[C@H](CC(=O)O)NC(=O)[C@H]2CCCN2C(=O)[C@H](CCC(=O)O)NC(=O)[C@@H](NC(=O)[C@H](Cc2ccc(O)cc2)NC(=O)[C@@H](NC(=O)c2cccc(CNC(=O)CN3CCN(CC(=O)O)CCN(CC(=O)O)CCN(CC(=O)O)CC3)c2)C(C)C)CSCc2cccc(c2)CSC[C@@H](C(N)=O)NC(=O)[C@H](C)NC(=O)[C@H](Cc2c[nH]c3ccccc23)NC(=O)[C@H]([C@@H](C)O)NC1=O [3BP-3429] ({DOTA-3Amb}-VYCE[dP]DWLTWAC-NH2; linker 3-12 via mXylylene)
< 10	CC(C)C[C@@H]1NC(=O)[C@H](Cc2c[nH]c3ccccc23)NC(=O)[C@H](CC(=O)O)NC(=O)[C@H]2CCCN2C(=O)[C@H](CCC(=O)O)NC(=O)[C@@H](NC(=O)[C@H](Cc2ccc(O)cc2)NC(=O)[C@@H](NC(=O)CN2CCC(NC(=O)CN3CCN(CC(=O)O)CCN(CC(=O)O)CCN(CC(=O)O)CC3)CC2)C(C)C)CSCc2cccc(c2)CSC[C@@H](C(N)=O)NC(=O)[C@H](CO)NC(=O)[C@H](Cc2c[nH]c3ccccc23)NC(=O)[C@H](Cc2c[nH]cn2)NC1=O [3BP-3597] ({DOTA}-[X2]VYCE[dP]DWLHWSC-NH2; linker 4-13 via mXylylene)

— US20250339569A1, “CARBONIC ANHYDRASE IX LIGANDS” (priority 2021, published 2025)
